Marks after values point to notes of the source that are not given here.
How the values were obtained:
[1] = tested on: Aedes aegypti Puerto Rican strain (pyrethroid-resistant); test: Topical application KD50 and LD50, pyrethroid-resistant strain
[2] = tested on: Aedes aegypti Orlando strain (pyrethroid-susceptible); test: Topical application KD50 and LD50, pyrethroid-susceptible strain
[3] = tested on: pyrethroid-susceptible (Orlando) strain of Aedes aegypti female adult mosquitoes; test: Spatial repellency, static air repellency chamber, Orlando strain; type: in vivo; settings: for EC50 (spatial repellency): 1 hour after introducing treated filter papers
Description: Spatial repellency of pogostone was assessed on pyrethroid-susceptible (Orlando) and pyrethroid-resistant (Puerto Rico) strains of Aedes aegypti female adult mosquitoes. Repellency bioassays were performed using a static air repellency chamber, which has been described previously (Schultz, 2006; Peterson, 2018). Briefly, the repellency chamber consists of a clear glass cylinder 600 mm in length with an inner diameter of roughly 85 mm laying horizontally. One end of the cylinder is capped with an untreated 90-mm filter paper (Whatman No. 1) contained in a 90-mm inner diameter glass petri dish, and sealed with tape to remain closed. The other end is capped in the same manner, except the filter paper has been treated with 1 mL of a 0.5% (w/v) solution of a monoterpenoid ester in acetone, resulting in 78.6 μg/cm^2 of repellent on the filter paper. The solution was added to the filter paper evenly and at a rate such that the evaporation of acetone prevents loss of compound from dripping, and the acetone was allowed to evaporate at room temperature for a further 10 minutes before use for the short-term repellency assay, or for an additional five hours under open air in ambient conditions in the case of long-term repellency studies. Shortly after placing the filter papers on the end of the tube, twenty (not blood fed) female […] mosquitoes were anesthetized with carbon dioxide, and placed into the tube via a 20-mm hole halfway down the length of the tube, and the hole was sealed. This process is performed with as little disturbance to the air in the tube as possible. The distribution of mosquitoes between the treated and untreated sides was then noted at 15, 30, 60, 90, 120, and 150 minutes after placement into the tube. Repellency ratio of Orlando or Puerto Rico mosquitoes was recorded as a proportion of the number of mosquitoes on the treated side of the tube compared to the whole tube [number of treated side/total number throughout entire tube] at 1 hour after introducing the treated filter papers.

[4] = tested on: Aedes aegypti adult female mosquitoes; test: LD50 of insecticides alone and in combination with sublethal pogostone; type: in vivo; settings: for Synergism Ratio: LD50 of insecticide alone / LD50 of insecticide in combination with pogostone; for LD50: insecticide alone or with pogostone at sublethal dosage, pogostone effect corrected with Abbott's formula
From the text: The dashed line indicates sublethal dosage of pogostone used for synergist experiments in Example 2.
Synergism ratios are presented as the ratio of the LD50 of insecticide alone and the LD50 of insecticide applied in combination with pogostone. The insecticidal effect of pogostone alone is corrected for using Abbott's formula (Equation 1) in all treatments using pogostone.

[5] = tested on: house fly strain CAR21 (S); test: Median lethal dose determination, house fly CAR21; type: in vivo
Description: (§1) 24-hour median lethal dose determinations of pogostone and permethrin were performed in three house fly strains and one stable fly strain. The KS17 resistant strain below is simultaneously resistant to organophosphates, carbamates, and synthetic pyrethroids.
(§2) 48-hour median lethal dose determinations of pogostone and permethrin were performed in three house fly strains. The KS17 resistant strain below is simultaneously resistant to organophosphates, carbamates, and synthetic pyrethroids.

[6] = tested on: Stable flies (S); test: Median lethal dose determination, stable fly; type: in vivo; settings: 24-hour
Description: as §1

[7] = tested on: house fly strain WHF (R); test: Median lethal dose determination, house fly WHF; type: in vivo; settings: for LD50: WHF (R); for RR (resistance ratio): WHF (R) LD50 divided by susceptible strain LD50
Description: as §1, §2

[8] = tested on: house fly strain KS17 (R); test: Median lethal dose determination, house fly KS17; type: in vivo; settings: for LD50: KS17 (R); for RR (resistance ratio): KS17 (R) LD50 divided by susceptible strain LD50, NS = not significantly different
Description: as §1, §2

[9] = tested on: pyrethroid-resistant (Puerto Rico) strain of Aedes aegypti female adult mosquitoes; test: Spatial repellency, static air repellency chamber, Puerto Rico strain; type: in vivo
Description: Spatial repellency of pogostone was assessed on pyrethroid-susceptible (Orlando) and pyrethroid-resistant (Puerto Rico) strains of Aedes aegypti female adult mosquitoes. Repellency bioassays were performed using a static air repellency chamber, which has been described previously (Schultz, 2006; Peterson, 2018). Briefly, the repellency chamber consists of a clear glass cylinder 600 mm in length with an inner diameter of roughly 85 mm laying horizontally. One end of the cylinder is capped with an untreated 90-mm filter paper (Whatman No. 1) contained in a 90-mm inner diameter glass petri dish, and sealed with tape to remain closed. The other end is capped in the same manner, except the filter paper has been treated with 1 mL of a 0.5% (w/v) solution of a monoterpenoid ester in acetone, resulting in 78.6 μg/cm^2 of repellent on the filter paper. […] Repellency ratio of Orlando or Puerto Rico mosquitoes was recorded as a proportion of the number of mosquitoes on the treated side of the tube compared to the whole tube [number of treated side/total number throughout entire tube] at 1 hour after introducing the treated filter papers.

Clc1ccc(C(c2ccc(Cl)cc2)C(Cl)(Cl)Cl)cc1 [DDT]
KD50 [1]: 350 ng/mg | LD50 [1]: 530 ng/mg | KD50 [2]: 9.5 ng/mg | LD50 [2]: 9.6 ng/mg

CCN(CC)C(=O)c1cccc(C)c1 [DEET]
EC50 (spatial repellency) [3]: approximately 10 μg/cm^2

CN/C(=N/CC1CCOC1)N[N+](=O)[O-] (stereo not shown) [Dinotefuran]
Synergism Ratio [4]: 6.0* | LD50 [4]: 12.7 ng/mg

CC1(C)C(C=C(Cl)Cl)C1C(=O)OCc1cccc(Oc2ccccc2)c1 (stereo not shown) [Permethrin]
Synergism Ratio [4]: 2.6* | LD50 [4]: 0.37 ng/mg | LD50 ([5]; 24-hour): 15.4 ng/fly | LD50 ([5]; 48-hour): 14.5 ng/fly | LD50 [6]: 1.81 ng/fly | LD50 ([7]; 24-hour): 1,100 ng/fly | RR (resistance ratio) ([7]; 24-hour): 71.5 | LD50 ([7]; 48-hour): 894 ng/fly | RR (resistance ratio) ([7]; 48-hour): 61.7 | LD50 ([8]; 24-hour): >5000 ng/fly | RR (resistance ratio) ([8]; 24-hour): 325.1 | LD50 ([8]; 48-hour): >5,000 ng/fly | RR (resistance ratio) ([8]; 48-hour): 344.8

Cc1cc(O)c(C(=O)CCC(C)C)c(=O)o1 [pogostone]
LD50 ([5]; 24-hour): 7,600 ng/fly | LD50 ([5]; 48-hour): 6,800 ng/fly | KD50 [1]: 14 ng/mg | LD50 [1]: 70 ng/mg | LD50 [6]: 540 ng/fly | LD50 ([7]; 24-hour): 13,900 ng/fly | RR (resistance ratio) ([7]; 24-hour): 1.8 | LD50 ([7]; 48-hour): 9,900 ng/fly | RR (resistance ratio) ([7]; 48-hour): 1.5 | LD50 ([8]; 24-hour): 10,700 ng/fly | LD50 ([8]; 48-hour): 6,890 ng/fly | KD50 [2]: 11 ng/mg | LD50 [2]: 96 ng/mg | EC50 (spatial repellency) [3]: 3.6 μg/cm^2 | spatial repellency (in words) ([3]; FIG. 2): considerably repellent | EC50 (spatial repellency) ([9]; 1 hour after introducing treated filter papers): 2.5 μg/cm^2 | spatial repellency (in words) ([9]; FIG. 2): considerably repellent

From patent US20250241308A1, “COMPOSITIONS AND METHODS FOR CONTROLLING PESTS” (PYRONE SYSTEMS, INC., priority 2022, published 2025)
